Experimental data from patent publication US20140107316A1, “DRUG DELIVERY CONJUGATES CONTAINING UNNATURAL AMINO ACIDS AND METHODS FOR USING” (priority 2012, published 2014).

Tests used:
[1] = test system: collagen-induced arthritis; experiment: Collagen-Induced Arthritis (CIA) Model; type: in vivo, female Lewis rats; settings: ten consecutive subcutaneous doses days 10-19; 500 nmol/kg induction, 100 nmol/kg maintenance
Method: Collagen-Induced Arthritis (CIA) Model. The collagen-induced arthritis (CIA) was induced in female Lewis rats on folate-deficient diet (Harlan Teklad, Indianapolis, Ind.). On Day 0, rats were immunized with 500 μg of bovine collagen Type II (Chondrex, Redmond, Wash.) formulated with Freund's complete adjuvant. A booster immunization was given on Day 7 with 250 μg of the bovine collagen formulated with Freund's incomplete adjuvant. Arthritis disease was assessed by a qualitative clinical score system described by the manufacturer (Chondrex, Redmond, Wash.): 0=normal, 1=Mild, but definite redness and swelling of the ankle or wrist, or apparent redness and swelling limited to individual digits, regardless of the number of affected digits, 2=Moderate redness and swelling of ankle of wrist, 3=Severe redness and swelling of the entire paw including digits, and 4=Maximally inflamed limb with involvement of multiple joints. On Day 10 post first immunization, rats were distributed evenly (according to the arthritis score) across the control and treatment groups. The CIA rats were given ten consecutive subcutaneous doses of EC0746 and methotrexate on days 10-19. For both drugs, an induction dose (500 nmol/kg) was given on days 10 and 15 and a maintenance dose (100 nmol/kg) was given on days 11-14 and 16-19. […] The arthritis score and animal body weight were recorded five times a week.

[2] = Plasma stability / drug release after dosing in rats; type: in vivo; settings: after a AC dose in rats
Text: EC1496 releases ca. 50% less drug than the comparative example EC0746 after a AC dose in rats.

[3] = test system: cells in culture; experiment: Cytotoxicity to cells in culture; type: cell-based; settings: read-out: typical IC50, cells in culture
[4] = test system: KB tumors; experiment: KB tumor assay in nu/nu mice; settings: for CR (%) / Cures (%) / PR (%) / Toxicity Avg. Weight Loss / Toxicity Deaths (%): TIW, 2 weeks
Method: Inhibition of Tumor Growth in Mice. Four to seven week-old mice (Balb/c or nu/nu strains) were purchased from Harlan Sprague Dawley, Inc. (Indianapolis, Ind.). Normal rodent chow contains a high concentration of folic acid (6 mg/kg chow); accordingly, mice used were maintained on the folate-free diet (Harlan diet #TD00434) for 1 week before tumor implantation to achieve serum folate concentrations close to the range of normal human serum. For tumor cell inoculation, 1×10^6 M109 cells (Balb/c strain) or 1×10^6 KB cells (nu/nu strain) in 100 μL were injected in the subcutis of the dorsal medial area. Tumors were measured in two perpendicular directions every 2-3 days using a caliper, and their volumes were calculated as 0.5×L×W^2, where L=measurement of longest axis in mm and W=measurement of axis perpendicular to L in mm. […] Dosing solutions were prepared fresh each day in PBS and administered through the lateral tail vein of the mice.
General KB Tumor Assay. The anti-tumor activity of the compounds described herein, when administered intravenously (i.v.) to tumor-bearing animals, was evaluated in nu/nu mice bearing subcutaneous KB tumors. Approximately 8 days post tumor inoculation in the subcutis of the right axilla with 1×10^6 KB cells (average tumor volume at to=50-100 mm^3), in mice (5/group) were injected i.v. three times a week (TIW), for 3 weeks with […] of the drug delivery conjugate or with an equivalent dose volume of PBS (control), unless otherwise indicated. Tumor growth was measured using calipers at 2-day or 3-day intervals in each treatment group. Tumor volumes were calculated using the equation V=a×b^2/2, where “a” is the length of the tumor and “b” is the width expressed in millimeters.
Toxicity as Measured by Weight Loss. The percentage weight change of the mice was determined in mice (5 mice/group) on selected days post-tumor inoculation (PTI), and graphed.
In vivo activity against tumors.

CCCC(=O)OCN(C(=O)[C@@H](NC(=O)[C@H]1CCCCN1C)C(C)CC)[C@H](C[C@H](OC(C)=O)c1nc(C(=O)N[C@H](Cc2ccc(O)cc2)C[C@H](C)C(=O)NNC(=O)OCCSSC[C@H](NC(=O)[C@H](CCC(=O)NC[C@H](O)[C@@H](O)[C@H](O)[C@H](O)CO)NC(=O)[C@H](CCC(=O)O)NC(=O)[C@H](CCC(=O)NC[C@H](O)[C@@H](O)[C@H](O)[C@H](O)CO)NC(=O)[C@H](CCC(=O)O)NC(=O)[C@H](CCC(=O)NC[C@H](O)[C@@H](O)[C@H](O)[C@H](O)CO)NC(=O)CC[C@H](NC(=O)c2ccc(NCc3cnc4nc(N)[nH]c(=O)c4n3)cc2)C(=O)O)C(=O)O)cs1)C(C)C (stereo partly shown) [EC0746]
effect on collagen-induced arthritis (arthritis score) [1]: effective

N=c1[nH]c(N)nc2ncc(CNc3ccc(C(=O)N[C@@H](CCC(=O)NNC(=O)OCCSSC[C@@H](NC(=O)[C@H](CCC(=O)NC[C@H](O)[C@@H](O)[C@H](O)[C@H](O)CO)NC(=O)[C@@H](CCC(=O)O)NC(=O)[C@H](CCC(=O)NC[C@H](O)[C@@H](O)[C@H](O)[C@H](O)CO)NC(=O)[C@@H](CCC(=O)O)NC(=O)[C@H](CCC(=O)NC[C@H](O)[C@@H](O)[C@H](O)[C@H](O)CO)NC(=O)CC[C@@H](NC(=O)c4ccc(NCc5cnc6nc(N)[nH]c(=O)c6n5)cc4)C(=O)O)C(=O)O)C(=O)O)cc3)nc12 [EC1496]
less drug released than comparative example EC0746 [2]: ca. 50%

CCCC(=O)OCN(C(=O)[C@@H](NC(=O)[C@H]1CCCCN1C)[C@@H](C)CC)[C@H](C[C@@H](OC(C)=O)c1nc(C(=O)N[C@@H](Cc2ccc(O)cc2)C[C@H](C)C(=O)O)cs1)C(C)C [Tubulysin B, tubulysin B]
IC50 [3]: ~1 nM
CR (%) ([4]; 0.1 μmol/kg (4 doses)): 0%
Cures (%) ([4]; 0.1 μmol/kg (4 doses)): 0%
PR (%) ([4]; 0.1 μmol/kg (4 doses)): 0%
Toxicity Avg. Weight Loss ([4]; 0.1 μmol/kg (4 doses)): >20%
Toxicity Deaths (%) ([4]; 0.1 μmol/kg (4 doses)): 100%
CR (%) ([4]; 0.2 μmol/kg (3 doses)): 0%
Cures (%) ([4]; 0.2 μmol/kg (3 doses)): 0%
PR (%) ([4]; 0.2 μmol/kg (3 doses)): 0%
Toxicity Avg. Weight Loss ([4]; 0.2 μmol/kg (3 doses)): >18%
Toxicity Deaths (%) ([4]; 0.2 μmol/kg (3 doses)): 100%
CR (%) ([4]; 0.5 μmol/kg (1 dose)): 0%
Cures (%) ([4]; 0.5 μmol/kg (1 dose)): 0%
PR (%) ([4]; 0.5 μmol/kg (1 dose)): 0%
Toxicity Avg. Weight Loss ([4]; 0.5 μmol/kg (1 dose)): >15%
Toxicity Deaths (%) ([4]; 0.5 μmol/kg (1 dose)): 100%
toxicity in relation to anti-tumor effect in mice ([4]; mouse, in vivo): dose-limiting toxicities in mice at levels that did not produce measurable anti-tumor effect
